biological target: T1, IRAK-4 (Homo sapiens, UniProt Q9NWZ3); assay: IRAK-4 ELISA, PBMC degradation; format: cell-based; set-up: endogenous in cells; host or cells: PBMC; details: treated overnight
T1 sequence (Q9NWZ3 1-460): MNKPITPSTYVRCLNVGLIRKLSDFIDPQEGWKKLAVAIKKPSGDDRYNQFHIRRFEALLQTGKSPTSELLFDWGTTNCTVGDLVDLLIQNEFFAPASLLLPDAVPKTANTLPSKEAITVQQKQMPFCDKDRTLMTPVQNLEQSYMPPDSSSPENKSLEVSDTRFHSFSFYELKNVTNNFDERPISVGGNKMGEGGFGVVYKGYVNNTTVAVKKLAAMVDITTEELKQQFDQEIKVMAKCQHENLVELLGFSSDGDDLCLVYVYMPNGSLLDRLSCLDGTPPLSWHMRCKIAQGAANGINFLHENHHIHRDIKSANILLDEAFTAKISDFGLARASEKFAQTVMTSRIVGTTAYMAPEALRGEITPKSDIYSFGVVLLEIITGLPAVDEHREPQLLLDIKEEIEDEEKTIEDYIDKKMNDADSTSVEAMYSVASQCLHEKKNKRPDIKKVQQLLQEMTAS
Summary of the method: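 OCI-Ly10 cells (1×10^6/ml) or PBMC (2×10^6/ml) treated with compound on the day of seeding and incubated overnight. IRAK-4 protein remaining in cell lysates quantified by sandwich ELISA.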

SMILES	DC50	Dmax	PBMC DC90	PBMC Dmax
Cn1c(=O)n(C2CCC(=O)NC2=O)c2cccc(N3CC(CN4CCC(n5cc6cc(NC(=O)c7cnn8cccnc78)c(C7CC7)cc6n5)CC4)C3)c21 (stereo not drawn) [Example 383]	< 1 nM	≥ 90%	A (A represents a DC90 value <10.0 nM)	
CC(C)Oc1cc2c(cc1NC(=O)c1cnn3cccnc13)CN(C1CCN(CC3(F)CN(c4cccc5c4n(C)c(=O)n5C4CCC(=O)NC4=O)C3)CC1)C2=O (stereo not drawn) [Example 385]	< 1 nM	≥ 90%	A (A represents a DC90 value <10.0 nM)	
CC(C)Oc1cc2nn(C3CCN(CC4(F)CN(c5cccc6c5n(C)c(=O)n6C5CCC(=O)NC5=O)C4)CC3)cc2cc1NC(=O)c1cnn2cccnc12 (stereo not drawn) [Example 386]	< 1 nM	≥ 90%	A (A represents a DC90 value <10.0 nM)	
Cn1c(=O)n(C2CCC(=O)NC2=O)c2cccc(N3CC(F)(CN4CCC(n5cc6cc(NC(=O)c7cnn8cccnc78)c(OCC7CC7)cc6n5)CC4)C3)c21 (stereo not drawn) [Example 387]	< 1 nM	≥ 90%	A (A represents a DC90 value <10.0 nM)	
CCN(C1CN(c2cccc3c2n(C)c(=O)n3C2CCC(=O)NC2=O)C1)[C@H]1CC[C@H](n2cc3cc(NC(=O)c4cnn5cccnc45)c(OC(C)C)cc3n2)CC1 (stereo partly drawn) [Example 388]	< 1 nM	≥ 90%	A (A represents a DC90 value <10.0 nM)	
Cn1c(=O)n(C2CCC(=O)NC2=O)c2cccc(N3CCC(CN4CCC(n5cc6cc(NC(=O)c7cnn8cccnc78)c(OCC7CC7)cc6n5)CC4)CC3)c21 (stereo not drawn) [Example 390, N-(6-(cyclopropylmethoxy)-2-(1-((1-(1-(2,6-dioxopiperidin-3-yl)-3-methyl-2-oxo-2,3-dihydro-1H-benzo[d]imidazol-4-yl)piperidin-4-yl)methyl)piperidin-4-yl)-2H-indazol-5-yl)pyrazolo[1,5-a]pyrimidine-3-carboxamide]	< 1 nM	≥ 90%	A (A represents a DC90 value <10.0 nM)	
COc1cc(N2CC(CN3CCC(N4Cc5cc(NC(=O)c6cnn7cccnc67)c(OC(C)C)nc5C4=O)CC3)C2)cc2c1C(=O)N(C1CCC(=O)NC1=O)C2=O (stereo not drawn) [Example 397, N-(6-(1-((1-(2-(2,6-dioxopiperidin-3-yl)-7-methoxy-1,3-dioxoisoindolin-5-yl)azetidin-3-yl)methyl)piperidin-4-yl)-2-isopropoxy-7-oxo-6,7-dihydro-5H-pyrrolo[3,4-b]ipyridin-3-yl)pyrazolo [1,5-a]pyrimidine-3-carboxamide]	< 1 nM		A (A represents a DC90 value <10.0 nM)	A (A represents a Dmax value ≥90)
CC(C)Oc1nc2c(cc1NC(=O)c1cnn3cccnc13)CN(C1CCN(CCc3ccc4c(c3)CN(C3CCC(=O)NC3=O)C4=O)CC1)C2=O (stereo not drawn) [Example 399]	1 to 5 nM	≥ 90%	B (B represents a DC90 value ≥10.0 nM and <25.0 nM)	
CC(C)Oc1nc2c(cc1NC(=O)c1cnn3cccnc13)CN(C1CCN(CC3CN(c4ccc5c(c4)CN(C4CCC(=O)NC4=O)C5=O)C3)CC1)C2=O (stereo not drawn) [Example 401]	1 to 5 nM	≥ 90%	B (B represents a DC90 value ≥10.0 nM and <25.0 nM)	
COc1cc(N2CC(CN3CCC(N4Cc5cc(NC(=O)c6cnn7cccnc67)c(OC(C)C)nc5C4=O)CC3)C2)cc2c1C(=O)N(C1CCC(=O)NC1=O)C2 (stereo not drawn) [Example 403]	1 to 5 nM	≥ 90%	C (C represents a DC90 value ≥25.0 nM and <50 nM)	
O=C1CCC(N2Cc3cc(N4CC(N5CCC(N6Cc7cc(NC(=O)c8cnn9cccnc89)c(N8CCOCC8)nc7C6=O)CC5)C4)ccc3C2=O)C(=O)N1 (stereo not drawn) [Example 404, N-[6-[1-[1-[2-(2,6-dioxo-3-piperidyl)-1-oxo-isoindolin-5-yl]azetidin-3-yl]-4-piperidyl]-2-morpholino-7-oxo-5H-pyrrolo[3,4-b]pyridin-3-yl]pyrazolo[1,5-a]pyrimidine-3-carboxamide]	≥ 10 nM	80 to 90%	D (D represents a DC90 value ≥50 nM)	
O=C1CCC(N2C(=O)c3ccc(N4CC(N5CCC(N6Cc7cc(NC(=O)c8cnn9cccnc89)c(N8CCOCC8)nc7C6=O)CC5)C4)cc3C2=O)C(=O)N1 (stereo not drawn) [Example 407]	< 1 nM	≥ 90%	A (A represents a DC90 value <10.0 nM)	
O=C1CCC(N2C(=O)c3ccc(N4CC(F)(CN5CCC(n6cc7cc(NC(=O)c8cnn9cccnc89)c(C(F)F)cc7n6)CC5)C4)cc3C2=O)C(=O)N1 (stereo not drawn) [Example 408, N-[6-(difluoromethyl)-2-[1-[[1-[2-(2,6-dioxo-3-piperidyl)-1,3-dioxo-isoindolin-5-yl]-3-fluoro-azetidin-3-yl]methyl]-4-piperidyl]indazol-5-yl]pyrazolo[1,5-a]pyrimidine-3-carboxamide]	< 1 nM	≥ 90%	A (A represents a DC90 value <10.0 nM)	
O=C1CCC(N2C(=O)c3ccc(N4CC(F)(CN5CCC(n6cc7cc(NC(=O)c8cnn9ccc(N%10CCOCC%10)nc89)c(C(F)F)cc7n6)CC5)C4)cc3C2=O)C(=O)N1 (stereo not drawn) [Example 409]	1 to 5 nM	≥ 90%	B (B represents a DC90 value ≥10.0 nM and <25.0 nM)	
O=C1CCC(N2C(=O)c3ccc(N4CC(F)(CN5CCC(n6cc7cc(NC(=O)c8cnn9ccc(N%10C[C@H]%11C[C@@H]%10CO%11)nc89)c(C(F)F)cc7n6)CC5)C4)cc3C2=O)C(=O)N1 (stereo partly drawn) [Example 410]	5 to 10 nM	80 to 90%	D (D represents a DC90 value ≥50 nM)	
CC(C)Oc1cc2nn(C3CCN(CC4(F)CN(c5ccc6c(n5)C(=O)N(C5CCC(=O)NC5=O)C6=O)C4)CC3)cc2cc1NC(=O)c1cnn2cccnc12 (stereo not drawn) [Example 411, N-(2-(1-((1-(6-(2,6-dioxopiperidin-3-yl)-5,7-dioxo-6,7-dihydro-5H-pyrrolo[3,4-b]pyridin-2-yl)-3-fluoroazetidin-3-yl)methyl)piperidin-4-yl)-6-isopropoxy-2H-indazol-5-yl)pyrazolo[1,5-a]pyrimidine-3-carboxamide]	5 to 10 nM	80 to 90%	D (D represents a DC90 value ≥50 nM)	
O=C1CCC(N2C(=O)c3ccc(N4CC(CN5CCC([C@H](F)CN6Cc7cc(NC(=O)c8cnn9cccnc89)c(N8CCOCC8)cc7C6=O)CC5)C4)cc3C2=O)C(=O)N1 (stereo partly drawn) [Example 412, N-(2-((2S)-2-(1-((1-(2-(2,6-dioxopiperidin-3-yl)-1,3-dioxoisoindolin-5-yl)azetidin-3-yl)methyl)piperidin-4-yl)-2-fluoroethyl)-6-morpholino-1-oxoisoindolin-5-yl)pyrazolo[1,5-a]pyrimidine-3-carboxamide]	1 to 5 nM	80 to 90%	A (A represents a DC90 value <10.0 nM)	
O=C1CCC(N2C(=O)c3ccc(N4CC(F)(CN5CCC([C@H](F)CN6Cc7cc(NC(=O)c8cnn9cccnc89)c(N8CCOCC8)cc7C6=O)CC5)C4)cc3C2=O)C(=O)N1 (stereo partly drawn) [Example 413]	1 to 5 nM	80 to 90%	B (B represents a DC90 value ≥10.0 nM and <25.0 nM)	
CC(C)Oc1cc2nn(C[C@@H](F)C3CCN(CC4(F)CN(c5ccc6c(c5)C(=O)N(C5CCC(=O)NC5=O)C6=O)C4)CC3)cc2cc1NC(=O)c1cnn2cccnc12 (stereo partly drawn) [Example 414]	1 to 5 nM	80 to 90%	B (B represents a DC90 value ≥10.0 nM and <25.0 nM)	

— patent US20230099344A1, “COMPOUNDS AND METHODS FOR THE TARGETED DEGRADATION OF IRAK-4” (Arvinas Operations, Inc., priority 2021, published 2023)
